According to ChEMBL document CHEMBL4725309, “Potent, non-covalent reversible BTK inhibitors with 8-amino-imidazo[1,5-a]pyrazine core featuring 3-position bicyclic ring substitutes” (Bioorg Med Chem Lett, 2020):

How the values were obtained:
[1] = biological target: Tyrosine-protein kinase Blk (Homo sapiens, UniProt P51451); experiment: Inhibition of BLK (unknown origin)
[2] = biological target: Tyrosine-protein kinase BTK (Homo sapiens, UniProt Q06187); experiment: Inhibition of recombinant full length BTK (unknown origin) expressed in baculovirus infected Sf9 cells using Biotin-EQEDEPEGDYFEWLE-NH2 peptide as substrate incubated for 60 mins followed by further incubation with substrate and ATP for 120 mins by TR-FRET assay
Sequence of Tyrosine-protein kinase BTK (Q06187 whole entry): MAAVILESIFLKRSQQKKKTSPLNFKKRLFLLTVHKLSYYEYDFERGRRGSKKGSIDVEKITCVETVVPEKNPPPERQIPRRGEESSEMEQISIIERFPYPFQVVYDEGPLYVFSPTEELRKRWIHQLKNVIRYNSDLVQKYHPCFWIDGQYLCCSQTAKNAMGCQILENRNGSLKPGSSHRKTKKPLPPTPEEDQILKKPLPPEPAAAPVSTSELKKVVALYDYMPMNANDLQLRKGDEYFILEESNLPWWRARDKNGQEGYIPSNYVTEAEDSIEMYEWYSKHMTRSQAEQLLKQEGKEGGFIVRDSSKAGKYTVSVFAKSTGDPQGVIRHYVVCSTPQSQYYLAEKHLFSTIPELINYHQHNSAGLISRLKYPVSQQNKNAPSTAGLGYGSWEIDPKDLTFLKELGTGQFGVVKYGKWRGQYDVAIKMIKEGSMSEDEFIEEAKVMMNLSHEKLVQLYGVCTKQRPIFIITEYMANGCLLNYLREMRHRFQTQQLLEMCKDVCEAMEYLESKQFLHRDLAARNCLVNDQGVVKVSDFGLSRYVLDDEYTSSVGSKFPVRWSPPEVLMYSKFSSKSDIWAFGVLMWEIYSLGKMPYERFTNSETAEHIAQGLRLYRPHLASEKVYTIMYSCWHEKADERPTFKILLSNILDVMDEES

Homo sapiens [3] = species: Homo sapiens; experiment: Selectivity index, ratio of IC50 for PTK6 (unknown origin) to IC50 for recombinant full length BTK (unknown origin) expressed in baculovirus infected Sf9 cells
Homo sapiens [4] = species: Homo sapiens; experiment: Selectivity index, ratio of IC50 for TEC (unknown origin) to IC50 for recombinant full length BTK (unknown origin) expressed in baculovirus infected Sf9 cells
Homo sapiens [5] = species: Homo sapiens; experiment: Selectivity index, ratio of IC50 for FGR (unknown origin) to IC50 for recombinant full length BTK (unknown origin) expressed in baculovirus infected Sf9 cells
Homo sapiens [6] = species: Homo sapiens; experiment: Selectivity index, ratio of IC50 for YES1 (unknown origin) to IC50 for recombinant full length BTK (unknown origin) expressed in baculovirus infected Sf9 cells
[7] = biological target: Receptor tyrosine-protein kinase erbB-4 (Homo sapiens, UniProt Q15303); experiment: Inhibition of ERBB4 (unknown origin)
Sequence of Receptor tyrosine-protein kinase erbB-4 (Q15303 whole entry): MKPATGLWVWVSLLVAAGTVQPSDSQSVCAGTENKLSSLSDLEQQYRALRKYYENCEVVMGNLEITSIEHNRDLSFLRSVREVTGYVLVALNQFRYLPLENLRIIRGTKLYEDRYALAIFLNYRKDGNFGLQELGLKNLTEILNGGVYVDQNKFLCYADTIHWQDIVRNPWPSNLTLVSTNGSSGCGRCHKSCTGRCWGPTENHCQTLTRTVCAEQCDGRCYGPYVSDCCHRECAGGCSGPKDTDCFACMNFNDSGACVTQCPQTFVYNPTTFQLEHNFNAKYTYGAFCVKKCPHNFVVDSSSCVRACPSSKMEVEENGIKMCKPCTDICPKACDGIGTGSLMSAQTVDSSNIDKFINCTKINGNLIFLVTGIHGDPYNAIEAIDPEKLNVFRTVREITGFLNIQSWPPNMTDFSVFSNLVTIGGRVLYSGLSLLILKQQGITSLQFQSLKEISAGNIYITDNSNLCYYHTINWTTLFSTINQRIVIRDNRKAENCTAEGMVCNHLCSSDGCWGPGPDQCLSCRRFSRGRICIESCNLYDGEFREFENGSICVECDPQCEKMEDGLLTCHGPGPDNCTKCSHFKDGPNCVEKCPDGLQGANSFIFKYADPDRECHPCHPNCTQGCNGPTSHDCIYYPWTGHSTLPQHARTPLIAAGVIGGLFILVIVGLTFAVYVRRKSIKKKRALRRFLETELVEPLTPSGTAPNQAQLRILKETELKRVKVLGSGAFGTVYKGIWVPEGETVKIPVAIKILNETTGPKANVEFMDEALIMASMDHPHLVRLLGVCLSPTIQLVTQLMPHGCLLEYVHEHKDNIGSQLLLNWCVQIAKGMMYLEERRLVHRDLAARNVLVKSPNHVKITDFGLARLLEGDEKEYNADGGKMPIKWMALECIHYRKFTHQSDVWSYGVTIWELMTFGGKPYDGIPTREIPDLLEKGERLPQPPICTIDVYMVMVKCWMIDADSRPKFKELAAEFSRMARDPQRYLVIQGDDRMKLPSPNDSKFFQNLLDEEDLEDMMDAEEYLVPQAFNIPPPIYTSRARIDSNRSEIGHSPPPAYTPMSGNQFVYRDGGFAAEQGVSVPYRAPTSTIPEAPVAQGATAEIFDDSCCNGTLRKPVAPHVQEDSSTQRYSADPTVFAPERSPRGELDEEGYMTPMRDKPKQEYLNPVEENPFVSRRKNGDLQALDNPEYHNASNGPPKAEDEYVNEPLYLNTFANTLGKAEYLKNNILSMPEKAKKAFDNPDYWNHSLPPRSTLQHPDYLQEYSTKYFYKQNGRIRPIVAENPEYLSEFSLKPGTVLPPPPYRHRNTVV

[8] = biological target: Protein-tyrosine kinase 6 (Homo sapiens, UniProt Q13882); experiment: Inhibition of PTK6 (unknown origin)
Sequence of Protein-tyrosine kinase 6 (Q13882 whole entry): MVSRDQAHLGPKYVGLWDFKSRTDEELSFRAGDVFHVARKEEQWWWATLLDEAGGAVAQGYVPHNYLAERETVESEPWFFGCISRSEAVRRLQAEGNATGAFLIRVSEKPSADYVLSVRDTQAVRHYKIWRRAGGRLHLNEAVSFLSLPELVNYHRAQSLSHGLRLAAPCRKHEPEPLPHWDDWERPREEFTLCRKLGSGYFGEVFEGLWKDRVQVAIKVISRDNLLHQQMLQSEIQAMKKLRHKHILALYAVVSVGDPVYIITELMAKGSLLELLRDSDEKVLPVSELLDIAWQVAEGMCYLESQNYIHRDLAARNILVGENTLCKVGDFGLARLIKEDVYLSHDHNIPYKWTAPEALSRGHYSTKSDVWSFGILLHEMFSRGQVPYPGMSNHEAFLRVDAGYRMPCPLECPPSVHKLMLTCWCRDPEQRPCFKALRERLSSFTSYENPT

Homo sapiens [9] = species: Homo sapiens; experiment: Selectivity index, ratio of IC50 for CSK (unknown origin) to IC50 for recombinant full length BTK (unknown origin) expressed in baculovirus infected Sf9 cells
Homo sapiens [10] = species: Homo sapiens; experiment: Selectivity index, ratio of IC50 for TXK (unknown origin) to IC50 for recombinant full length BTK (unknown origin) expressed in baculovirus infected Sf9 cells
Homo sapiens [11] = species: Homo sapiens; experiment: Selectivity index, ratio of IC50 for LYNB (unknown origin) to IC50 for recombinant full length BTK (unknown origin) expressed in baculovirus infected Sf9 cells
[12] = Clearance in Wistar Han rat at 2 mg/kg, iv; type: ADME, organism-based; conditions: in vivo
[13] = biological target: Tyrosine-protein kinase Yes (Homo sapiens, UniProt P07947); experiment: Inhibition of YES1 (unknown origin)
Sequence of Tyrosine-protein kinase Yes (P07947 whole entry): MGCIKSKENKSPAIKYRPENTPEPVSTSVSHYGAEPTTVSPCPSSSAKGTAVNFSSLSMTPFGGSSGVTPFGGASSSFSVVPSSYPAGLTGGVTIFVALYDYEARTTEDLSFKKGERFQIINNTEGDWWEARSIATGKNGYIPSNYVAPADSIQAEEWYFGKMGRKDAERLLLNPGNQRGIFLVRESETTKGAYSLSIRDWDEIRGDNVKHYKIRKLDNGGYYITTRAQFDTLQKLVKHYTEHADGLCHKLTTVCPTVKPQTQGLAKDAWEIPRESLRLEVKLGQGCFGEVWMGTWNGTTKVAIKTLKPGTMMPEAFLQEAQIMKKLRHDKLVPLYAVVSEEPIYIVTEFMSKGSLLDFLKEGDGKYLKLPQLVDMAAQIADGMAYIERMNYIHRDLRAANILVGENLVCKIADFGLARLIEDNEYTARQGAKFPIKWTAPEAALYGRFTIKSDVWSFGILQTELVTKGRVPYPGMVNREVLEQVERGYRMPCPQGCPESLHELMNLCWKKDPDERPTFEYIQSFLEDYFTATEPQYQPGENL

Homo sapiens [14] = species: Homo sapiens; experiment: Selectivity index, ratio of IC50 for LCK (unknown origin) to IC50 for recombinant full length BTK (unknown origin) expressed in baculovirus infected Sf9 cells
[15] = Volume of distribution at steady state in Wistar Han rat at 2 mg/kg, iv; type: ADME, organism-based; conditions: in vivo, read-out: Vdss
Homo sapiens [16] = species: Homo sapiens; experiment: Selectivity index, ratio of IC50 for SRMS (unknown origin) to IC50 for recombinant full length BTK (unknown origin) expressed in baculovirus infected Sf9 cells
[17] = biological target: Tyrosine-protein kinase Fgr (Homo sapiens, UniProt P09769); experiment: Inhibition of FGR (unknown origin)
Sequence of Tyrosine-protein kinase Fgr (P09769 whole entry): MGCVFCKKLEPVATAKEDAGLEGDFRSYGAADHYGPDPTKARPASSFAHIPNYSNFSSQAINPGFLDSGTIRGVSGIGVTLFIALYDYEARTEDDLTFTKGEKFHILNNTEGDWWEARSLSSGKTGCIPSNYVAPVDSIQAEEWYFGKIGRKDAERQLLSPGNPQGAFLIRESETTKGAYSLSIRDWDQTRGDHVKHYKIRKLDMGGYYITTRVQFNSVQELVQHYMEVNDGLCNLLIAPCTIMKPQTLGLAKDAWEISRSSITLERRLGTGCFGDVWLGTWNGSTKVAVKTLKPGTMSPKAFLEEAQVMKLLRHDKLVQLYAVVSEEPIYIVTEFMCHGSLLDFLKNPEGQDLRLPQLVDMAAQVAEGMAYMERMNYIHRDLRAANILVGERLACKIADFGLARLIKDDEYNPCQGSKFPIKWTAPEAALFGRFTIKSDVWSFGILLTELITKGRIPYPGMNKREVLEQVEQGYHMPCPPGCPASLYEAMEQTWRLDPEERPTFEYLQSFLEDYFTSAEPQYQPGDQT

Homo sapiens [18] = species: Homo sapiens; experiment: Selectivity index, ratio of IC50 for ERBB4 (unknown origin) to IC50 for recombinant full length BTK (unknown origin) expressed in baculovirus infected Sf9 cells
[19] = Clearance in Beagle dog at 1 mg/kg, iv; type: ADME, organism-based, Canis lupus familiaris; conditions: in vivo
[20] = Volume of distribution at steady state in Beagle dog at 1 mg/kg, iv; type: ADME, organism-based, Canis lupus familiaris; conditions: in vivo, read-out: Vdss
[21] = Oral bioavailability in Beagle dog at 2 mg/kg; type: ADME, organism-based, Canis lupus familiaris; conditions: in vivo
[22] = AUC in Beagle dog at 1 mg/kg, iv; type: ADME, organism-based, Canis lupus familiaris; parameters: dose 1 mg/kg; conditions: in vivo
[23] = Half life in Beagle dog at 1 mg/kg, iv; type: ADME, organism-based, Canis lupus familiaris; conditions: in vivo
Rattus norvegicus = experiment: Antiarthritic activity in Lewis rat model of collagen-induced arthritis assessed as decrease in paw thickness at 1 to 30 mg/kg, po qd and measured for 30 days; type: functional, organism-based; conditions: dose mg/kg 1-30, time 30.0 day
[24] = Cmax in Beagle dog at 2 mg/kg, po; type: ADME, organism-based, Canis lupus familiaris; parameters: route oral, dose 2 mg/kg; conditions: in vivo
[25] = Tmax in Beagle dog at 2 mg/kg, po; type: ADME, organism-based, Canis lupus familiaris; conditions: in vivo

Sequence of Tyrosine-protein kinase Blk (P51451 whole entry): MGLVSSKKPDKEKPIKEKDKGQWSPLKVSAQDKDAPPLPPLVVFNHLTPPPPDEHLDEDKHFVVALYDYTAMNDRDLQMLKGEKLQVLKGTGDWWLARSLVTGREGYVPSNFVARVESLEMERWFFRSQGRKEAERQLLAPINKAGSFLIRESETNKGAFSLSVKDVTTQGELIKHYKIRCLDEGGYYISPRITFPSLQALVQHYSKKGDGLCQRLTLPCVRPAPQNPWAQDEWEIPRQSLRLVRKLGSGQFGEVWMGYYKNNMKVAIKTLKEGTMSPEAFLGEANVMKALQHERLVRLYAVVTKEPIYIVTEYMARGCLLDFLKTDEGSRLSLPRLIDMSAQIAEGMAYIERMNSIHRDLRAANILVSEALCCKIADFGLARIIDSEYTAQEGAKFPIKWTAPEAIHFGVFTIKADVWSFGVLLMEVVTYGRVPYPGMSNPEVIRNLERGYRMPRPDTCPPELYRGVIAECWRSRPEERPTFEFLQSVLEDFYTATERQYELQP

SMILES: CC1(C)OC(=O)N2C[C@H](c3nc(-c4ccc(C(=O)Nc5cc(C(F)(F)F)ccn5)cc4)c4c(N)nccn34)CC[C@H]21
- IC50 [1]: 17 nM
- IC50 [2]: 0.12 nM
- Ratio IC50 (Homo sapiens [3]): 200
- Ratio IC50 (Homo sapiens [4]): 220
- Ratio IC50 (Homo sapiens [5]): 283
- Ratio IC50 (Homo sapiens [6]): 250
- IC50 [7]: 23 nM
- IC50 [8]: 24 nM
- Ratio IC50 (Homo sapiens [9]): 2900
- Ratio IC50 (Homo sapiens [10]): 125
- Ratio IC50 (Homo sapiens [11]): 660
- clearance [12]: 26 mL/min/kg
- IC50 [13]: 30 nM
- Ratio IC50 (Homo sapiens [14]): 110
- Vd [15]: 5.6 L/kg
- Ratio IC50 (Homo sapiens [16]): 67
- IC50 [17]: 34 nM
- Ratio IC50 (Homo sapiens [18]): 190

SMILES: Nc1nccn2c([C@@H]3CC[C@H]4CCC(=O)N4C3)nc(-c3ccc(C(=O)Nc4cc(C(F)(F)F)ccn4)cc3)c12
- clearance [19]: 11 mL/min/kg
- IC50 [1]: 8.3 nM
- Vd [20]: 1.5 L/kg
- bioavailability [21]: 100%
- Ratio IC50 (Homo sapiens [3]): 420
- Ratio IC50 (Homo sapiens [4]): 630
- AUC [22]: 2.8 µM·h
- Ratio IC50 (Homo sapiens [6]): 120
- IC50 [7]: 24 nM
- IC50 [8]: 42 nM
- Ratio IC50 (Homo sapiens [9]): 1620
- half-life [23]: 3.6 h
- Ratio IC50 (Homo sapiens [10]): 330
- Ratio IC50 (Homo sapiens [11]): 200
- clearance [12]: 8 mL/min/kg
- IC50 [13]: 12 nM
- Ratio IC50 (Homo sapiens [14]): 59
- Vd [15]: 0.78 L/kg
- Ratio IC50 (Homo sapiens [16]): 91
- Activity (Rattus norvegicus): Dose-dependent effect
- Cmax [24]: 1700 nM
- Ratio IC50 (Homo sapiens [18]): 240
- Tmax [25]: 1 h

SMILES: Nc1nccn2c([C@@H]3CC[C@H]4COC(=O)N4C3)nc(-c3ccc(C(=O)Nc4cc(C(F)(F)F)ccn4)cc3)c12
- IC50 [1]: 22 nM
- IC50 [2]: 0.083 nM
- Ratio IC50 (Homo sapiens [3]): 600
- Ratio IC50 (Homo sapiens [4]): 1110
- Ratio IC50 (Homo sapiens [5]): 313
- Ratio IC50 (Homo sapiens [6]): 420
- IC50 [7]: 34 nM
- IC50 [8]: 50 nM
- Ratio IC50 (Homo sapiens [9]): 3500
- Ratio IC50 (Homo sapiens [10]): 554
- Ratio IC50 (Homo sapiens [11]): 590
- clearance [12]: 17 mL/min/kg
- IC50 [13]: 35 nM
- Ratio IC50 (Homo sapiens [14]): 132
- Vd [15]: 1.2 L/kg
- Ratio IC50 (Homo sapiens [16]): 169
- IC50 [17]: 26 nM
- Ratio IC50 (Homo sapiens [18]): 410
